Where a name gives a salt, the structure may show the parent alone.

For experiment [1], the target named is T1, 5-lipoxygenase (Cavia porcellus, UniProt A0A286X958).
T1 sequence (A0A286X958 1-674): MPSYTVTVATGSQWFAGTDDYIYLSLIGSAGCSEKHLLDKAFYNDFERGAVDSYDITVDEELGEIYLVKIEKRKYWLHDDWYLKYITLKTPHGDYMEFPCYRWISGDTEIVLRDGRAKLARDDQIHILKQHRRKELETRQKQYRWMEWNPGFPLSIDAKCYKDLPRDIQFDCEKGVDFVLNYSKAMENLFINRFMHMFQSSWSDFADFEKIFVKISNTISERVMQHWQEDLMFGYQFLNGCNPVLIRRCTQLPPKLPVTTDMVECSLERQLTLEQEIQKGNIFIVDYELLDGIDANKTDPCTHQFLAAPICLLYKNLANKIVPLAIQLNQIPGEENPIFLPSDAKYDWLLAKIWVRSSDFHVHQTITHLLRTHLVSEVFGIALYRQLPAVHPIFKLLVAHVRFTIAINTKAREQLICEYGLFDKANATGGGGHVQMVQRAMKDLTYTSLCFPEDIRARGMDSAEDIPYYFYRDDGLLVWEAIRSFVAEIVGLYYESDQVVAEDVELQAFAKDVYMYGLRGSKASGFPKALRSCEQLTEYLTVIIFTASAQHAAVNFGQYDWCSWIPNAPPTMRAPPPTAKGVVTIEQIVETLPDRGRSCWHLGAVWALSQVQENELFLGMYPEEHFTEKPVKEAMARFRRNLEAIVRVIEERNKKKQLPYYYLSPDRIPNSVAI
The experiment in a line: Enzyme assay using the 105,000 x g supernate of sonicated polymorphonuclear leukocytes: production of 5-HETE, 5,12-diHETE and LTB. Type of experiment: biochemical. The conditions noted are these: supernate enzyme of guinea pig polymorphonuclear leukocytes, 5 min at 30°C, 1 mM calcium chloride, read-out: concentration for a 50% inhibition of 5-lipoxygenase, i.e. IC50. Here is the method: Further, in another assay system, the inhibitory activity of compounds of the present invention on 5-lipoxygenase only was also evaluated by using an enzyme prepared from polymorphonuclear leukocytes of guinea pig. Guinea pig was treated by casein and harvested polymcrphonuclear leukocytes from cavity were sonicated, followed by the centrifugation at 105,000 x g. The supernate was used as an enzyme throughout this work. The supernate (100 - 500 µg of protein) was incubated for 5 minutes at 30°C with [^14C] arachidonic acid and 1 mM calcium chloride in the presence or in the absence of test compound. The reaction was terminated by the addition of ether.

For experiment [2], the target named is T1, 5-lipoxygenase. The experiment in a line: Screening assay using polymorphonuclear leukocytes: production of 5-HETE from [14C] arachidonic acid. Type of experiment: cell-based. The conditions noted are these: intact polymorphonuclear leukocytes from guinea pig, 5 min preincubation and 5 min incubation at 37°C, read-out: concentration for 50% inhibition on 5-lipoxygenase. Here is the method:
The experiments for screening using polymorphonuclear leukocytes were carried out as follows: The reaction mixture (0.1 ml) containing 5 µmole of potassium phosphate at pE 7.4, 0.1 µmole of calcium chloride, polymorphonuclear leukocytes prepared from guinea pigs (4 x 10^7 cells) and test compound, was preincubated for 5 minutes at 37°C. The reaction was started by the addition of [^14C) arachidonic acid (2.2 x 10^5 dpm, 1.8 nmole), followed by the incubation at 37°C for 5 minutes. The reaction was terminated by the addition of 0.3 ml of a mixture of ether/methanol/lM citric acid (30/4/1). The organic phase (20 µl) was applied to silica gel plate. Thin layer chromatography was performed to separate each product with solvent system of ether/petroleum ether/acetic acid (85/15/0.1).
Activity of 5-lipoxygenase and cyclooxygenase were calculated from the measurements of the production of 5-HETE, and 12L-hydroxy-5,8,lC-heptatrienoic acid (i.e. HHT) or thromboxane B2 (i.e. TXB2), respectively [it has been known that HHT and TXB2 are the last products of the system concerning cyclooxygenase in the arachidonate cascade]. The concentrations for 50% inhibitions on 5-lipoxygenase and on cyclooxygenase were evaluated by using the concentration of compounds of the present invention required 50% inhibitions on the productions of 5-HETE, and HHT or TXB2, respectively.

With `Nc1cc(C(=O)c2ccccc2)c(O)cc1O` [4-Amino-6-benzoylresorcinol hydrochloride], on 5-lipoxygenase [1], the IC50 worked out at 6670 nM. The same measure, in the same setting: the same measure for `Nc1c(O)c(Cl)cc(C(=O)c2ccc(Cl)cc2)c1O` [2-Amino-4-chloro-6-(4-chlorobenzoyl)resorcinol hydrochloride]: 2630 nM. Regarding `COC(c1ccc(Cl)cc1)c1cc(Cl)c(O)c(N)c1O` (centres unmarked) [2-Amino-4-chloro-6-(a-methoxy-4-chlorobenzyl)resorcinol hydrochloride], the IC50 on 5-lipoxygenase [1] amounted to 2000 nM. On to `Nc1c(O)ccc(C(=O)c2ccccc2)c1O` [2-Amino-6-benzoylresorcinol hydrochloride], for which the IC50 at 5-lipoxygenase [2] is 300 nM; on 5-lipoxygenase [1], 400 nM.

Source of the values: patent EP0079141A1, “Aminoresorcinol derivatives” (ONO PHARMACEUTICAL CO., LTD., priority 1981, dated 1983).
